Experimental data published in ChEMBL document CHEMBL5042519, “Design and synthesis of marine sesterterpene analogues as novel estrogen receptor α degraders for breast cancer treatment” (Eur J Med Chem, 2022).
pIC50: −log10 of the molar value. Calls of active or inactive are those of the source. The calls are words filed in the database; no cut-off is given here.

What was measured:
[1] = system: MCF7; experiment: Cell cycle arrest in human MCF7 cells assessed as accumulation at G1 phase at 1 uM measured after 24 hrs by propidium iodide staining based flow cytometry (reference value: 73.45 %); format: functional
[2] = biological target: T1, Progesterone receptor (Homo sapiens) (UniProt P06401); experiment: Induction of progesterone receptor degradation in human MCF7 cells assessed as decrease in PR level at 1 uM incubated for 24 hrs by Western blot analysis; format: cell-based
T1 sequence (whole entry): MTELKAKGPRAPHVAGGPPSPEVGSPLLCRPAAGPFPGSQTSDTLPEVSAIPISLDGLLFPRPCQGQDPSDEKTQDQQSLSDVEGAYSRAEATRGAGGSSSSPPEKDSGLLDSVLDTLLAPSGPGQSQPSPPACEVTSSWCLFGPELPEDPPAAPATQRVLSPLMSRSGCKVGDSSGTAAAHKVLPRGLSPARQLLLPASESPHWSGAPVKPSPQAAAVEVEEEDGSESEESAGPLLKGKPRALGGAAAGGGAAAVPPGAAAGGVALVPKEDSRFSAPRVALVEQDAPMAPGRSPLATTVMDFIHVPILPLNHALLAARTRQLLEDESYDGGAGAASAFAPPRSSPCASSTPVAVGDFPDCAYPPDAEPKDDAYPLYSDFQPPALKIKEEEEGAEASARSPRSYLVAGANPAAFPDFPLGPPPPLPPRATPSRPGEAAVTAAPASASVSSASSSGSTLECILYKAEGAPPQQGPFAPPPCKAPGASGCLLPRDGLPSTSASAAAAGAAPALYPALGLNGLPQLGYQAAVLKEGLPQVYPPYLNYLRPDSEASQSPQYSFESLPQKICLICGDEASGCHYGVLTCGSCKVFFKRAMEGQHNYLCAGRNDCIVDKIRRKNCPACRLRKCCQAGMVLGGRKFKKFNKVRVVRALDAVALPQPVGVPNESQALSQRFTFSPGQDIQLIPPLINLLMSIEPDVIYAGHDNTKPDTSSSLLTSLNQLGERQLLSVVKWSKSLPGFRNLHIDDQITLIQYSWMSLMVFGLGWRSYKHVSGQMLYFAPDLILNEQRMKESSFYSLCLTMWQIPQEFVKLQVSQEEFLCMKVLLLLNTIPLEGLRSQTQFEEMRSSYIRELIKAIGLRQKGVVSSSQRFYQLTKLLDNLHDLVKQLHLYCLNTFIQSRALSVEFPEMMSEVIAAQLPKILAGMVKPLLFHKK

[3] = system: MCF7; experiment: Inhibition of colony formation in human MCF7 cells at 0.5 uM measured after 9 days by crystal violet staining based assay relative to control; format: functional, cell-based; conditions: time 9.0 day
[4] = system: MCF7; experiment: Induction of ROS generation in human MCF7 cells assessed as increase in intracellular ROS level measured after 24 hrs preincubated with NAC by DCFH-DA staining based flow cytometry method; format: functional, cell-based
[5] = system: MCF7; experiment: Induction of ROS generation in human MCF7 cells assessed as increase in intracellular ROS level at 2 uM measured after 24 hrs by DCFH-DA staining based flow cytometry method (reference value: 19.02%); format: functional
[6] = system: MCF7; experiment: Induction of apoptosis in human MCF7 cells assessed as early apoptotic cells at 0.5 uM incubated for 24 hrs by annexin-V and PI staining based flow cytometry analysis relative to control; format: functional
[7] = system: MCF7; experiment: Induction of mitochondrial membrane potential loss in human MCF7 cells measured after 24 hrs by JC-1 staining based flow cytometry; format: functional, cell-based
[8] = biological target: T2, Estrogen receptor (Homo sapiens) (UniProt P03372); experiment: Induction of ERalpha degradation in human MCF7 cells assessed as ERalpha level at 3 uM measured after 24 hrs in presence of chloroquine by Western blot analysis; format: cell-based
T2 sequence (whole entry): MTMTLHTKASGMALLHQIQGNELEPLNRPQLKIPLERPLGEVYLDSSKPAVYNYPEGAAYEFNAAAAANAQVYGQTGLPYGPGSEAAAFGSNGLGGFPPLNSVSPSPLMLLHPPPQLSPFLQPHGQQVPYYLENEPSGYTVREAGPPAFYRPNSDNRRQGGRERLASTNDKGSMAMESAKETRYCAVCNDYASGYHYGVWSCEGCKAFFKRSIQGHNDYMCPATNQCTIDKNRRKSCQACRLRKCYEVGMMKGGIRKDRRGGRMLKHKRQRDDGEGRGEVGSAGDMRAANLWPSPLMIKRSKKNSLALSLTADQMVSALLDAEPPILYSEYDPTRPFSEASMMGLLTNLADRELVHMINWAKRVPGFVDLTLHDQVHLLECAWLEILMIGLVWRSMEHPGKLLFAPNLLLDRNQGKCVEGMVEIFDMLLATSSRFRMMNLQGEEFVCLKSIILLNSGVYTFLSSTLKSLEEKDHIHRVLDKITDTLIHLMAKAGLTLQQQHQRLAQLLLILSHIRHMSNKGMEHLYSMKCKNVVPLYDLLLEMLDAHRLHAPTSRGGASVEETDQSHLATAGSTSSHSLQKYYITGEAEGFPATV

[9] = system: MCF7; experiment: Induction of apoptosis in human MCF7 cells assessed as decrease in Bcl2 protein level at 0.5 to 3 uM and measured after 24 hrs Western blot analysis relative to control; format: functional, cell-based; conditions: dose 0.5-3 µM
[10] = system: MCF7; experiment: Antiproliferative activity against human MCF7 cells assessed as reduction in cell viability after 48 hrs by MTT assay; format: functional, cell-based; conditions: MCF7, 48 h
[11] = system: MCF7; experiment: Cell cycle arrest in human MCF7 cells assessed as accumulation at G1 phase at 0.5 uM measured after 24 hrs by propidium iodide staining based flow cytometry (reference value: 73.45 %); format: functional
[12] = Antiproliferative activity against human MCF-10A cells assessed as reduction in cell viability after 48 hrs by MTT assay; format: toxicity, cell-based
[13] = system: MCF7; experiment: Inhibition of colony formation in human MCF7 cells at 2 uM measured after 9 days by crystal violet staining based assay relative to control; format: functional, cell-based; conditions: time 9.0 day
[14] = biological target: T2, Estrogen receptor (Homo sapiens); experiment: Induction of ERalpha degradation in human MCF7 cells assessed as decrease in ERalpha protein expression at 1 uM incubated for 24 hrs by Western blot analysis; format: cell-based
[15] = Metabolic stability in rat plasma assessed as parent compound remaining incubated for 60 mins in presence of NADPH by UPLC-MS analysis; format: ADME, cell-free; conditions: read-out: Stability
[16] = system: MCF7; experiment: Cell cycle arrest in human MCF7 cells assessed as reduction in cyclin D1 expression at 0.5 to 3 uM and measured after 24 hrs by Western blot analysis; format: functional, cell-based; conditions: dose 0.5-3 µM
[17] = Selectivity index, ratio of IC50 for antiproliferative activity against human MCF-10A cells to IC50 for antiproliferative activity against human MDA-MB-231 cells by MTT assay; format: toxicity, cell-based; conditions: MCF-10A cells versus MDA-MB-231 cells, read-out: Ratio IC50

CC1=CC(=O)[C@H]2/C(C=O)=C\C[C@H]3[C@@H]([C@@H](C)/C=C\C=C/C(=O)OCCOCCOCCOC(=O)CC45CC6CC(CC(C6)C4)C5)CC[C@]3(C)C[C@H]12
Activity [1]: 78.07% | Activity [2]: inactive | inhibition [3]: Active | Activity [4]: inactive | Activity [5]: 58.14% | Activity [6]: 6.9% | Activity [7]: Active | Activity [8]: Active | Activity [9]: Active | pIC50 [10]: 6.39 | Activity [11]: 74.77% | IC50 at 48 h [12]: 2190 nM | inhibition [13]: Active | Activity [14]: Active | remaining at 1 h [15]: 81% | Activity [16]: Dose-Dependent Effect | selectivity ratio [17]: 5.34
